From patent US8809001B2, “High throughput assays for inhibitors and activators of PAQR receptors” (University of Florida Research Foundation, Inc., priority 2007, dated 2014)
Like-named read-outs stand apart in the source and are kept apart here.

Experiments:
Ste2p GPCR = target: T1, Ste2p GPCR (Saccharomyces cerevisiae, UniProt D6VTK4); assay: FET3-lacZ reporter in yeast overexpressing Ste2p GPCR; type: cell-based; conditions: 1 μM; overexpressed Ste2p, wild type cells (mat a), 2% galactose
T1 construct: expressed in transfected cells; host or cells: Saccharomyces cerevisiae wild type (mat a), pRS316-based GAL1-STE2 plasmid
T1 sequence (D6VTK4 1-431): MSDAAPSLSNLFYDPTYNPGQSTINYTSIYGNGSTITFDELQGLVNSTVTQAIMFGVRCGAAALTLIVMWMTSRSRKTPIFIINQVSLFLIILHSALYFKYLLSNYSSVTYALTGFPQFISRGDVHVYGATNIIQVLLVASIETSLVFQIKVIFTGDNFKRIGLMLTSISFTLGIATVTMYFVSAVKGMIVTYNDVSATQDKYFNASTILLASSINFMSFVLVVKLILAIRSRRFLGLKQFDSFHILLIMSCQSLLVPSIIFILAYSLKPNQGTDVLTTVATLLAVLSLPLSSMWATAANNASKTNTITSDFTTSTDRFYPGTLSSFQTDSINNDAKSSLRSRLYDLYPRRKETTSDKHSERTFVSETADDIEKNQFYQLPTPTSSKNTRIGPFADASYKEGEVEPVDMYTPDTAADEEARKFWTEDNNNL
Excerpt: (§1) Plasmids and primers. Human PAQRs were cloned into various vectors by PCR from commercially/publically available cDNAs. PAQRs were cloned into the pYES260 (Melcher, 2000), pRS316 (Liu et al., 1992) or pGREG536 (Jansen et al., 2005) expression vectors using gap repair. The pJK90 plasmid containing a Dual Topology Reporter (DTR)-tagged OST4 gene driven by the constitutive TPI1 promoter was kindly provided by Dr. Gunnar von Heijne (Stockholm University) (Kim et al., 2003). The OST4 open reading frame in pJK90 was replaced with the PAQR6 and mPRα open reading frames by gap repair. Primers for all cloning reactions are listed herein. Proteins expressed in pYES260 have an N-terminal 6×-histidine tag followed by a TEV protease cleavage site. Proteins expressed in pGREG536 have an N-terminal 7×-HA tag. Proteins expressed in the pRS316 vector are untagged. The pYES260, pRS316 and pGREG536 vectors allow for galactose-inducible expression via the GAL1 promoter. […] The FET3-lacZ plasmid was previously described (Kupchak et al., 2007). […]
(§2) Assays and growth conditions. […] Cells were allowed to grow to mid-log phase at which time the activity of the FET3 gene was monitored using a FET3-lacZ promoter-reporter construct. lacZ activities are presented as a percentage of activity seen in untreated cells expressing the appropriate empty expression vector control. […]

PAQR6 = target: T2, PAQR6 (Homo sapiens, UniProt Q6TCH4); assay: FET3-lacZ reporter repression in yeast expressing PAQR6; type: cell-based; conditions: FET3-lacZ
T2 construct: expressed in transfected cells; host or cells: Saccharomyces cerevisiae BY4742, GAL1-driven pYES260 plasmid
T2 sequence (Q6TCH4 1-344): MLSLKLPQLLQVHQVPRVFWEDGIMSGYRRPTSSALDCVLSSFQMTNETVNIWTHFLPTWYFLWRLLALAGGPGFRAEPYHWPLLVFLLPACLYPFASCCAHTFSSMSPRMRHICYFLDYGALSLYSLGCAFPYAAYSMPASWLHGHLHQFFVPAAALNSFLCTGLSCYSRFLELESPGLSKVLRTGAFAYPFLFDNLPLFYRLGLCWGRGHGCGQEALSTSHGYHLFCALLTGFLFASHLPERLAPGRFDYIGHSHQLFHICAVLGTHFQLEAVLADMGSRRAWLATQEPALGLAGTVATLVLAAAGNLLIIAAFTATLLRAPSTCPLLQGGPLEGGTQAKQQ
Excerpt: as §1, §2

PAQR9 = target: T3, PAQR9 (Homo sapiens, UniProt Q6ZVX9); assay: FET3-lacZ reporter repression in yeast expressing PAQR9; type: cell-based; conditions: FET3-lacZ
T3 construct: expressed in transfected cells; host or cells: Saccharomyces cerevisiae BY4742, GAL1-driven pYES260 plasmid
T3 sequence (Q6ZVX9 1-377): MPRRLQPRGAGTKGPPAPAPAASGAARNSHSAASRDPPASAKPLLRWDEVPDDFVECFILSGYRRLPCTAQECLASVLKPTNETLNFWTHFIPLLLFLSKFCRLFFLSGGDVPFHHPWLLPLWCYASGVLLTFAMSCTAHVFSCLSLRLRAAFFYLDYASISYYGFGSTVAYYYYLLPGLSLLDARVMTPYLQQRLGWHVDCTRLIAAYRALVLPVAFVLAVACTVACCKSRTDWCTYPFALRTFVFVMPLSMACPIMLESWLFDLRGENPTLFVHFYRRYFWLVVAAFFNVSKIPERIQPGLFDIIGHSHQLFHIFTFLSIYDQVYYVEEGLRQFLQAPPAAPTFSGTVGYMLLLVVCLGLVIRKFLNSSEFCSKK
Excerpt: (§3) Plasmids and primers. Human PAQRs were cloned into various vectors by PCR from commercially/publically available cDNAs. PAQRs were cloned into the pYES260 (Melcher, 2000), pRS316 (Liu et al., 1992) or pGREG536 (Jansen et al., 2005) expression vectors using gap repair. The pJK90 plasmid containing a Dual Topology Reporter (DTR)-tagged OST4 gene driven by the constitutive TPI1 promoter was kindly provided by Dr. Gunnar von Heijne (Stockholm University) (Kim et al., 2003). The OST4 open reading frame in pJK90 was replaced with the PAQR6 and mPRα open reading frames by gap repair. Primers for all cloning reactions are listed herein. Proteins expressed in pYES260 have an N-terminal 6×-histidine tag followed by a TEV protease cleavage site. Proteins expressed in pGREG536 have an N-terminal 7×-HA tag. Proteins expressed in the pRS316 vector are untagged. The pYES260, pRS316 and pGREG536 vectors allow for galactose-inducible expression via the GAL1 promoter. […] The FET3-lacZ plasmid was previously described (Kupchak et al., 2007). Plasmids derived from pADM4 carrying hyperactive alleles of Gpa1p (Gpa1p^Q323L) (Slessareva et al., 2006) and Gpa2p (Gpa2p^Q300L) (Harashima et al., 2002) driven by the ADH1 promoter were kindly provided by Dr. Henrik Dohlman (UNC Chapel Hill). A pRS316-based plasmid containing the STE2 gene under the control of the GAL1 promoter (Feng et al., 2000) was kindly provided by Dr. Nicholas G. Davis (Wayne State University).
Assays and growth conditions. Strains were maintained using standard protocol and grown in synthetic defined (SD) media with the appropriate amino acids to match the auxotrophies of the individual strains. Low Iron Medium (LIM) contains EDTA to limit iron-bioavailability and its composition has been previously described (Kupchak et al., 2007). […] Cells were allowed to grow to mid-log phase at which time the activity of the FET3 gene was monitored using a FET3-lacZ promoter-reporter construct. lacZ activities are presented as a percentage of activity seen in untreated cells expressing the appropriate empty expression vector control. […]

mPRα = target: T4, mPRα (Homo sapiens, UniProt Q86WK9); assay: cell-based
T4 construct: Full length and truncated mPRγ and mPRα were expressed in wild type cells grown in 2% galactose from the pGREG536 vector; expressed in transfected cells; host or cells: Saccharomyces cerevisiae (BY4742 wild type; also gpa mutants), GAL1-driven plasmids (TPI1 promoter in pJK90)
T4 sequence (Q86WK9 1-346): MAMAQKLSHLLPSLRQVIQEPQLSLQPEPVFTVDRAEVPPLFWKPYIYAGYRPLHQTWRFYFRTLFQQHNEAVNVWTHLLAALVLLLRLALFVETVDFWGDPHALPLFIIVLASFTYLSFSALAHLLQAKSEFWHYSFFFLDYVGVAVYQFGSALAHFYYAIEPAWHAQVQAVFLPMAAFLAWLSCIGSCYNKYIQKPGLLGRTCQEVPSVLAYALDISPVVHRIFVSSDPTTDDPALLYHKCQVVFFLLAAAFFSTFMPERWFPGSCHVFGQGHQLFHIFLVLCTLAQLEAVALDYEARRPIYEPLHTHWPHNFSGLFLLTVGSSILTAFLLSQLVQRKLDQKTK
Excerpt: Plasmids and primers. Human PAQRs were cloned into various vectors by PCR from commercially/publically available cDNAs. […] The OST4 open reading frame in pJK90 was replaced with the PAQR6 and mPRα open reading frames by gap repair. Primers for all cloning reactions are listed herein. Proteins expressed in pYES260 have an N-terminal 6×-histidine tag followed by a TEV protease cleavage site. Proteins expressed in pGREG536 have an N-terminal 7×-HA tag. Proteins expressed in the pRS316 vector are untagged. The pYES260, pRS316 and pGREG536 vectors allow for galactose-inducible expression via the GAL1 promoter. […] A pRS316-based plasmid containing the STE2 gene under the control of the GAL1 promoter (Feng et al., 2000) was kindly provided by Dr. Nicholas G. Davis (Wayne State University).
Assays and growth conditions. Strains were maintained using standard protocol and grown in synthetic defined (SD) media with the appropriate amino acids to match the auxotrophies of the individual strains. […] In brief, overnights of cells grown in SD-glucose media were re-inoculated into iron-deficient LIM to induce the expression of FET3. […] All ligands were added to the growth medium upon re-inoculation into LIM. For experiments in which steroids were added as ligands, steroids were added from ethanol stocks and “untreated” controls are actually treated with an equal volume of ethanol to control for vehicle effects. […] All experiments were performed at least three times and a representative experiment is shown. EC50 values were obtained using the web-based BioDataFit software using sigmoidal curve-fitting. (web site changbioscience.com/stat/ec50.html)

mPRγ = target: T5, mPRγ (Homo sapiens, UniProt Q9NXK6); assay: FET3-lacZ reporter repression in yeast expressing mPRγ; type: cell-based
T5 construct: Full length and truncated mPRγ and mPRα were expressed in wild type cells grown in 2% galactose from the pGREG536 vector; expressed in transfected cells; host or cells: Saccharomyces cerevisiae (BY4742 wild type; also gpa mutants), GAL1-driven plasmids
T5 sequence (Q9NXK6 1-330): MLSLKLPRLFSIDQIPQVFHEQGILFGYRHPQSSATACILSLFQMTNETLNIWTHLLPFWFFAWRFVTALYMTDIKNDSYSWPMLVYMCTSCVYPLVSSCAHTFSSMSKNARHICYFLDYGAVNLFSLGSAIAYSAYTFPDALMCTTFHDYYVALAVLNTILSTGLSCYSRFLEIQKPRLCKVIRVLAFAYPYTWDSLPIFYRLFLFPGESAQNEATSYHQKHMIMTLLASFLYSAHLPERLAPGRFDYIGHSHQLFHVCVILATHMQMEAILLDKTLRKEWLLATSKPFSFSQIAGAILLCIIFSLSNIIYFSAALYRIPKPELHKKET
Excerpt: as §3
Assays and growth conditions. Strains were maintained using standard protocol and grown in synthetic defined (SD) media with the appropriate amino acids to match the auxotrophies of the individual strains. Low Iron Medium (LIM) contains EDTA to limit iron-bioavailability and its composition has been previously described (Kupchak et al., 2007). […] In brief, overnights of cells grown in SD-glucose media were re-inoculated into iron-deficient LIM to induce the expression of FET3. 2% galactose was used as a carbon source to induce full expression of PAQR genes driven by the GAL1 promoter, while 0.05% galactose/1.95% raffinose was used for reduced PAQR expression. All ligands were added to the growth medium upon re-inoculation into LIM. For experiments in which steroids were added as ligands, steroids were added from ethanol stocks and “untreated” controls are actually treated with an equal volume of ethanol to control for vehicle effects. Cells were allowed to grow to mid-log phase at which time the activity of the FET3 gene was monitored using a FET3-lacZ promoter-reporter construct. lacZ activities are presented as a percentage of activity seen in untreated cells expressing the appropriate empty expression vector control. For individual experiments, each data point has been done in triplicate and the error bars represent +/−1 standard deviation. All experiments were performed at least three times and a representative experiment is shown. EC50 values were obtained using the web-based BioDataFit software using sigmoidal curve-fitting. (web site changbioscience.com/stat/ec50.html)

pFET3-397 = pFET3-397 lacZ reporter in yeast with AMPK activator in the growth medium; type: cell-based, Saccharomyces cerevisiae; conditions: 500 μM in the growth medium
Protocol: Most experiments were performed in a defined EDTA-containing medium known as low iron medium (LIM) (Eide et al., 1992). Iron-deficiency and repletion were generated by adding either 1 μM or 1 mM of FeCl3, respectively, to LIM. 2% galactose was used to fully induce GAL1-driven gene overexpression. Total sugar concentration was maintained at 2% by the addition of raffinose in those experiments in which the % galactose was modulated to decrease expression levels. Cells were allowed to grow to mid-log phase in LIM and β-galactosidase assays on permeabilized yeast were performed as previously described (Lyons et al., 2000). Ferroxidase activity assays on intact yeast cells followed published procedures using ferrozine as a colorimetric indicator of iron oxidation state (De Silva et al., 1995). All experiments include triplicate data points and each experiment was performed a minimum of three times. Representative experiments are shown. All error bars represent ±1 standard deviation within a single experiment. Because of the simplicity of β-galactosidase assays and the fact that Izh2p overexpression similarly affects both lacZ and ferroxidase activity, lacZ assays are shown for most experiments. For some strains with significant growth defects, such as snf1Δ, lacZ assays were not performed because of the low efficiency of co-transformation of lacZ reporter and overexpression plasmids. […]

[1] = FET3-lacZ, steroids up to 10 μM

α-factor
effect on FET3 (Ste2p GPCR): no effect

CC(=O)[C@@]1(O)CC[C@H]2[C@@H]3CCC4=CC(=O)CC[C@]4(C)[C@H]3CC[C@@]21C [17α-hydroxyprogesterone]
activation of PAQR6 (in words) (PAQR6): can be activated
activation of PAQR9 (in words) (PAQR9): can be activated
agonist activity on mPRα (in words) (mPRα; [1]): effective activator
activation of mPRα, alterations at the 17 and 21 positions of the pregnane ring (in words) (mPRα; further analysis of mPRα (pRS316 plasmid, 2% galactose per FIG. 7C)): similarly effective activators
EC50 (mPRα; mPRα column of Table 4, ligand alone, read-out: EC50): 10.2 nM
EC50 (mPRα; read-out: EC50 for the activation of mPRα): ~10 nM
agonist activity on mPRγ (in words) (mPRγ; [1]): effective activator
EC50 (mPRγ; mPRγ column of Table 4, ligand alone): 9.3 nM

NC(=O)c1ncn([C@@H]2O[C@H](CO)[C@@H](O)[C@H]2O)c1N [AICAR]
effect on pFET3-397 activity (pFET3-397): small but reproducible decrease
